Assay results taken from patent US12637413B2, “Fatty acid amide hydrolase (FAAH) cleavable prodrugs of thyromimetics and combination with peripherally restricted FAAH inhibitors” (Autobahn Therapeutics, Inc., priority 2021, dated 2026).

Target: T1, recombinant human FAAH (rhFAAH) (Homo sapiens, UniProt O00519)
T1 construct: purchased Cayman Chemical (Ann Arbor, MI, USA)
T1 sequence (O00519 1-579): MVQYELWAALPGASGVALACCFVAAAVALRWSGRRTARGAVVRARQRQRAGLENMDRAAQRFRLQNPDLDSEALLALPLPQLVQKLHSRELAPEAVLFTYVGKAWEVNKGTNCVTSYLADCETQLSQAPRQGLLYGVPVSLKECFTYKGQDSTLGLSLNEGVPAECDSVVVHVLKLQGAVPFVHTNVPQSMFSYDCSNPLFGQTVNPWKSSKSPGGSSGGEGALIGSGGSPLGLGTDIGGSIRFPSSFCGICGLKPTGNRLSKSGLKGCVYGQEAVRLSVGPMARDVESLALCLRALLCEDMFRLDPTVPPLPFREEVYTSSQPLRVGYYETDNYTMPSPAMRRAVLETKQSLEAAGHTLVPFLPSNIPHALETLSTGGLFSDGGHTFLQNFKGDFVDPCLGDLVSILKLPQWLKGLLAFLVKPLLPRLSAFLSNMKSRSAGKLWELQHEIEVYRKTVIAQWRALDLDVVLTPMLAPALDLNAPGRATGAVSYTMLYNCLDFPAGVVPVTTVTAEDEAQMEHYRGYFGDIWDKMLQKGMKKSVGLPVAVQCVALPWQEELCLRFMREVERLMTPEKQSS
Assay: FAAH substrate evaluation (acid metabolite formation)
Format: biochemical
Conditions: observed rate constant for acid metabolite formation; 0.5 ng/μL rhFAAH, 1 μM test compound, room temperature, 0-60 minutes
Procedure: Purified recombinant human FAAH (rhFAAH) was purchased from Cayman Chemical (Ann Arbor, MI, USA). The total volume for each incubation was 400 μL containing a final 0.5 ng/μL rhFAAH, 1 μM test compound, 1.25% ethanol or 1 μM PF-3845 (FAAH inhibitor), and 0.1% bovine serum albumin in Tris-EDTA buffer at pH 8.0). The positive control was LL-341001. The incubation was conducted at the room temperature. At 0, 5, 15, 30 and 60 minutes, an aliquot of 30 μL reaction mixtures was removed and mixed with 300 μL acetonitrile containing 5 ng/mL terfenadine and 10 ng/mL tolbutamide as internal standards to quench the reaction. The resulting mixture was centrifuged at 4000 rpm, 4° C. for 15 minutes, and 100 μL supernatant was ready for LC-MS/MS analysis to measure the formation of acid metabolite.
Acquity Ultra Performance LC system from Waters was used for sample analysis. The chromatography was performed on a reverse phase Kinetex 2.6 μm C18 column, 2.1×30 mm, 100 Å. The mobile phase A comprised of 0.1% formic acid in water and mobile phase B comprised of 0.1% formic acid in acetonitrile with a 2-min run time at the flow rate of 0.8 mL/min for the acid metabolite from positive control or a 1.5 min run time at the flow rate of 0.9 mL/min for the acid metabolite of test compounds. The mass spectrometer (API-5500 and API Q Trap 4000 Applied Biosystems/MDS SCIEX Instruments, Framingham, MA, USA) was operated under ESI positive or negative ion MRM mode.
The formation of acid metabolite was monitored and quantified using one calibration point of 1 μM. The observed rate constant (ke) for the acid metabolite formation was calculated by plotting the metabolite concentration versus time of incubation with the slope being ke and is shown in Table 1.

| Structure (SMILES) | ke |
| --- | --- |
| CC(C)CN(C)C(=O)COc1cc(Cl)c(Cc2ccc(O)c(C(C)C)c2)c(Cl)c1 [Compound 120, 2-(3,5-dichloro-4-(4-hydroxy-3-isopropylbenzyl)phenoxy)-N-isobutyl-N-methylacetamide] | C (ke is 0) |
| CCNC(=O)COc1cc(Cl)c(Cc2ccc(O)c(C(C)C)c2F)c(Cl)c1 [Compound 33] | A (ke is more than or equal to 0.1) |
| CC(C)c1cc(Cc2c(Cl)cc(OCC(=O)NC3COC3)cc2Cl)ccc1O [Compound 18] | A (ke is more than or equal to 0.1) |
| CON(C)C(=O)COc1cc(Cl)c(Cc2ccc(O)c(C(C)C)c2F)c(Cl)c1 [Compound 44] | A (ke is more than or equal to 0.1) |
| CC(C)c1cc(Cc2c(Cl)cc(OCC(=O)N3CCC3)cc2Cl)ccc1O [Compound 118, 1-(azetidin-1-yl)-2-(3,5-dichloro-4-(4-hydroxy-3-isopropylbenzyl)phenoxy)ethan-1-one] | B (ke is less than 0.1 and more than 0) |
| CC(C)c1cc(Cc2c(Cl)cc(OCC(=O)N(C)C(C)C)cc2Cl)ccc1O [Compound 122, 2-(3,5-dichloro-4-(4-hydroxy-3-isopropylbenzyl)phenoxy)-N-isopropyl-N-methylacetamide] | B (ke is less than 0.1 and more than 0) |
| CC(C)c1cc(Cc2c(Cl)cc(OCC(=O)N(C)CC(F)F)cc2Cl)ccc1O [Compound 132, 2-(3,5-dichloro-4-(4-hydroxy-3-isopropylbenzyl)phenoxy)-N-(2,2-difluoroethyl)-N-methylacetamide] | B (ke is less than 0.1 and more than 0) |
| CC(C)c1cc(Cc2c(Cl)cc(OCC(=O)N(C)N(C)C)cc2Cl)ccc1O [Compound 108, 2-(3,5-dichloro-4-(4-hydroxy-3-isopropylbenzyl)phenoxy)-N,N′,N′-trimethylacetohydrazide] | B (ke is less than 0.1 and more than 0) |
| CCN(C)C(=O)COc1cc(Cl)c(Cc2ccc(O)c(C(C)C)c2F)c(Cl)c1 [Compound 34] | C (ke is 0) |
| CC(C)c1cc(Cc2c(Cl)cc(OCC(=O)N(C)CCF)cc2Cl)ccc1O [Compound 125, 2-(3,5-dichloro-4-(4-hydroxy-3-isopropylbenzyl)phenoxy)-N-(2-fluoroethyl)-N-methylacetamide] | B (ke is less than 0.1 and more than 0) |
| CC#CCN(C)C(=O)COc1cc(Cl)c(Cc2ccc(O)c(C(C)C)c2)c(Cl)c1 [Compound 107, N-(but-2-yn-1-yl)-2-(3,5-dichloro-4-(4-hydroxy-3-isopropylbenzyl)phenoxy)-N-methylacetamide] | B (ke is less than 0.1 and more than 0) |
| CC(C)c1c(O)ccc(Cc2c(Cl)cc(OCC(N)=O)cc2Cl)c1F [Compound 35] | A (ke is more than or equal to 0.1) |
| CNC(=O)COc1cc(Cl)c(Cc2ccc(O)c(C(C)C)c2F)c(Cl)c1F [Compound 39] | B (ke is less than 0.1 and more than 0) |
| CC(C)c1cc(Cc2c(Cl)cc(OCC(=O)NCC(F)(F)F)cc2Cl)ccc1O [Compound 16] | A (ke is more than or equal to 0.1) |
| CC(C)c1cc(Cc2c(Cl)cc(OCC(=O)NCCS(C)(=O)=O)cc2Cl)ccc1O [Compound 30] | A (ke is more than or equal to 0.1) |
| CC(C)c1c(O)ccc(Cc2c(Cl)cc(OCC(=O)NN(C)C)cc2Cl)c1F [Compound 45] | A (ke is more than or equal to 0.1) |

Second part, the compound after the results:

| ke | Structure (SMILES) |
| --- | --- |
| A (ke is more than or equal to 0.1) | CC(C)c1cc(Cc2c(Cl)cc(OCC(=O)NCCCF)cc2Cl)ccc1O [Compound 112, 2-(3,5-dichloro-4-(4-hydroxy-3-isopropylbenzyl)phenoxy)-N-(3-fluoropropyl)acetamide] |
| A (ke is more than or equal to 0.1) | COc1ccc(NC(=O)COc2cc(Cl)c(Cc3ccc(O)c(C(C)C)c3)c(Cl)c2)nn1 [Compound 113, 2-(3,5-dichloro-4-(4-hydroxy-3-isopropylbenzyl)phenoxy)-N-(6-methoxypyridazin-3-yl)acetamide] |
| A (ke is more than or equal to 0.1) | CC(C)c1cc(Cc2c(Cl)cc(OCC(=O)NC3CC3)cc2Cl)ccc1O [Compound 17] |
| B (ke is less than 0.1 and more than 0) | CC(C)c1cc(Cc2c(Cl)cc(OCC(=O)NCCS(=O)O)cc2Cl)ccc1O [Compound 13] |
| A (ke is more than or equal to 0.1) | CC(C)c1cc(Cc2c(Cl)cc(OCC(=O)N[C@H](C)CO)cc2Cl)ccc1O [Compound 9] |
| B (ke is less than 0.1 and more than 0) | CC(C)c1cc(Cc2c(Cl)cc(OCC(=O)NC3CCC3)cc2Cl)ccc1O [Compound 127, N-cyclobutyl-2-(3,5-dichloro-4-(4-hydroxy-3-isopropylbenzyl)phenoxy)acetamide] |
| A (ke is more than or equal to 0.1) | COc1ccc(NC(=O)COc2cc(Cl)c(Cc3ccc(O)c(C(C)C)c3)c(Cl)c2)cn1 [Compound 101, 2-(3,5-dichloro-4-{[4-hydroxy-3-(propan-2-yl)phenyl]methyl}phenoxy)-N-(6-methoxypyridin-3-yl)acetamide] |
| B (ke is less than 0.1 and more than 0) | CC#CCNC(=O)COc1cc(Cl)c(Cc2ccc(O)c(C(C)C)c2)c(Cl)c1 [Compound 106, N-(but-2-yn-1-yl)-2-(3,5-dichloro-4-(4-hydroxy-3-isopropylbenzyl)phenoxy)acetamide] |
| C (ke is 0) | CC(C)CNC(=O)COc1cc(Cl)c(Cc2ccc(O)c(C(C)C)c2)c(Cl)c1 [Compound 121, 2-(3,5-dichloro-4-(4-hydroxy-3-isopropylbenzyl)phenoxy)-N-isobutylacetamide] |
| A (ke is more than or equal to 0.1) | CCNC(=O)COc1cc(Cl)c(Cc2ccc(O)c(C(C)C)c2)c(Cl)c1 [Compound 2] |
| A (ke is more than or equal to 0.1) | CC(C)c1cc(Cc2c(Cl)cc(OCC(=O)Nc3ccnnc3)cc2Cl)ccc1O [Compound 116, 2-(3,5-dichloro-4-(4-hydroxy-3-isopropylbenzyl)phenoxy)-N-(pyridazin-4-yl)acetamide] |
| B (ke is less than 0.1 and more than 0) | CNN(C)C(=O)COc1cc(Cl)c(Cc2ccc(O)c(C(C)C)c2)c(Cl)c1 [Compound 124, 2-(3,5-dichloro-4-(4-hydroxy-3-isopropylbenzyl)phenoxy)-N,N′-dimethylacetohydrazide] |
| A (ke is more than or equal to 0.1) | C#CCNC(=O)COc1cc(Cl)c(Cc2ccc(O)c(C(C)C)c2)c(Cl)c1 [Compound 5] |
| C (ke is 0) | CC(C)c1cc(Cc2c(Cl)cc(OCC(=O)NC(C)(C)C)cc2Cl)ccc1O [Compound 119, N-(tert-butyl)-2-(3,5-dichloro-4-(4-hydroxy-3-isopropylbenzyl)phenoxy)acetamide] |
| A (ke is more than or equal to 0.1) | C=CCNC(=O)COc1cc(Cl)c(Cc2ccc(O)c(C(C)C)c2)c(Cl)c1 [Compound 4] |
| A (ke is more than or equal to 0.1) | CC(C)c1cc(Cc2c(Cl)cc(OCC(=O)NCCO)cc2Cl)ccc1O [Compound 6] |
| A (ke is more than or equal to 0.1) | CC(C)c1cc(Cc2c(Cl)cc(OCC(=O)NCC(F)F)cc2Cl)ccc1O [Compound 15] |
| A (ke is more than or equal to 0.1) | CC(C)c1cc(Cc2c(Cl)cc(OCC(=O)N[C@@H]3C[C@@H]3F)cc2Cl)ccc1O [Compound 111, 2-(3,5-dichloro-4-(4-hydroxy-3-isopropylbenzyl)phenoxy)-N-((1R,2S)-2-fluorocyclopropyl)acetamide] |
